Common to all, as to assay: SPR binding to immobilized biotinylated RNA
A general note: In SPR one partner is held on a chip, and binding of the other changes the refractive index at the surface.

In experiment [1] the test system is CUG-CAG duplex ("Duplex") (SEQ ID NO: 6). The settings on record: for Residence time (t1/2) for compound binding to RNA / Off-rates (koff) / On-rates (kon): Duplex. The protocol: (§1) SPR binding measurements were performed on a Biacore-X instrument (Biacore, Inc., Uppsala, Sweden) with two flow channels (FC1 and FC2). 5′-Biotinylated-RNA sequences, with a C6 linker separating the biotin label from the RNA (Integrated DNA Technologies Inc.) were immobilized on streptavidin (Rockland Immunochemicals) functionalized carboxylmethyl dextran coated sensor chips (CM5, G.E. Healthcare) using EDC/NHS (Advanced ChemTech) coupling chemistry. Filtered (0.2μ), degassed and autoclaved HBS-N buffer (0.01M Hepes, pH=7.4, 0.15 M NaCl) was employed as sample and as running buffer for all SPR experiments. A typical protocol for an experiment is as follows: A CM5 sensor chip was allowed to equilibrate to room temperature and then docked into the instrument. Following priming with running buffer, FC1 and FC2 were conditioned by manual injection of 20 μL aqueous NaOH (50 mM) at a flow rate of 30 μL/min. This was repeated 3 times followed by a wash command. Next, the carboxyl groups on the sensor chip surface in both flow cells were activated separately by injecting 60 μL of freshly prepared 1:1 mixture of EDC (0.4 M) and NHS (0.1 M) at a 5 μL/min flow rate followed by a wash. […] After washing, the surface was deactivated with 60 μL injection of ethanolamine (1M, pH=8.5) at 5 μL/min. The flow cells were primed, and the streptavidin surface in FC1 alone was blocked with 30 μL of biotin (20 μM in HBS-N) at 5 μL/min. The RNA (200 nM in running buffer, HBS-N) to be immobilized was unfolded by heating above its predicted melting temperature in a heated block for 2 min and then allowed to refold by cooling gradually to room temperature. The RNA was then immobilized in FC2 alone to response units ranging from 200-1000 RU using a 5 μL/min flow rate. Representative sensorgrams for the immobilization procedure is shown in FIGS. 2A-B. Two 20 μL aliquots of NaCl (0.5 M) were injected at a 30 μL/min flow rate to remove non-specifically bound RNA. The level of RNA immobilized was noted when the baseline was stable, usually after repeated buffer injection followed by a “prime” command. Binding measurements were performed by flowing various concentrations of the compounds to be analyzed over the immobilized RNA and recording the reference-subtracted (FC2−FC1) sensorgrams. For kinetic analysis, at least five sensorgrams corresponding to different concentrations of compound (usually ranging from 0.05-1 μM in HBS-N) were obtained using flow rates of either 60 μL/min or 30 μL/min. The experimental sensorgrams were globally fitted to a 1:1 binding equation (Biaevaluation software) to obtain association rates (ka) and dissociation rates ([…]) as well as equilibrium binding constants (KD). To measure the binding stoichiometry (n), the relations in equations (1-3) below were used: […]
(§2) where RUmax is the maximum resonance response unit at saturation, RURNA is the amount RU of RNA immobilized, n is the stoichiometry, MWcompound and MWRNA are molecular weights of compound and RNA respectively, and RUeq represents the resonance response at steady-state (equilibrium). The response units at equilibrium were subjected to Scatchard binding plots of (r/Cfree vs. r).
(§3) The binding characteristics of compounds 3-11 were evaluated against pathogenic CUG^exp RNA and other RNA sequences by SPR. This technique allows the association and dissociation rates (ka and kd), equilibrium binding constants (KD), and the binding stoichiometry (n) to be measured in a label-free format (Liu and Wilson, “Quantitative Analysis of Small Molecule-nucleic Acid Interactions with a Biosensor Surface and Surface Plasmon Resonance Detection,” Methods Mol. Biol. 613:1-23 (2010), which is hereby incorporated by reference in its entirety). […]

Experiment [2] deals with (CUG)4 RNA (SEQ ID NO: 2). The settings on record: for Off-rates (koff) / On-rates (kon): SPR. The protocol: as §1, §2, §3
Experiment [3] deals with (CAG)10 RNA (SEQ ID NO: 5). Conditions: for Off-rates (koff) / On-rates (kon): SPR. The protocol:
as §1, §2, §3

In experiment [4] the test system is (CUG)2 RNA (SEQ ID NO: 1). The settings on record: for Off-rates (koff) / On-rates (kon): SPR; for ka / kd: Table 7, SPR. The protocol:
as §1, §2, §3

Experiment [5] concerns (CCUG)10 RNA (SEQ ID NO: 4). Conditions: (CCUG)10; for Off-rates (koff) / On-rates (kon): SPR. The protocol: as §1, §2, §3
The test system of experiment [6] is HIV-1 FSS RNA (SEQ ID NO: 7). The protocol:
as §1
where RUmax is the maximum resonance response unit at saturation, RURNA is the amount RU of RNA immobilized, n is the stoichiometry, MWcompound and MWRNA are molecular weights of compound and RNA respectively, and RUeq represents the resonance response at steady-state (equilibrium). The response units at equilibrium were subjected to Scatchard binding plots of (r/Cfree vs. r). […]
SPR and fluorescence titration experiments, performed using the protocol described in Examples 3 and 4 above, except using as the target a highly conserved RNA sequence responsible for regulating the production of the Gag-Pol polyprotein via a −1 ribosomal frameshift, which occurs along a “slippery sequence” in gag-pol mRNA (SEQ ID NO: 7). This “frameshift stimulatory sequence” (or “HIV-1 FSS”) consists of an upper stemloop and a lower stem, separated by a purine bulge in the most common types of HIV (FIG. 19). For the fluorescent titration experiments, the upper stemloop of SEQ ID NO: 7 was employed. Cell uptake and toxicity studies were carried out using human fibroblasts according to Example 5 above.

SMILES strings stand for the structures.

Turning to `CCc1nc2cc3ccccc3cc2cc1C(=O)N1CCC[C@H]1C(=O)N[C@@H](C/C=C\C[C@H](NC(=O)[C@@H]1CCCN1C(=O)c1cc2cc3ccccc3cc2nc1CC)C(=O)N[C@@H](CCCCN)C(=O)NCCCN)C(=O)N[C@@H](CCCCN)C(=O)NCCCN` [Compound 4], the “Residence time (t1/2) for compound binding to RNA” value amounted to 452.94 s in experiment [1]; 425.15 s in experiment [2]; 239.79 s in experiment [3]; 784.82 s in experiment [4]; 376.63 s in experiment [5]; 45.29 s in experiment [6]. For the same compound, in experiment [1] (SPR), the “binding to duplex CUG-CAG stronger than the E isomer, compound 5” value was “approximately 5.7 fold”. In addition, the “Off-rates (koff)” value in experiment [1] (SPR) amounted to 0.00153 s⁻¹; in experiment [2], 0.00163 s⁻¹; in experiment [3], 0.00289 s⁻¹; in experiment [4], 0.000883 s⁻¹; in experiment [5] it was 0.00184 s⁻¹; in experiment [6] (SPR) it was 0.0153 s⁻¹. For the same compound, the “On-rates (kon)” value in experiment [1] (SPR) turned out to be 29500 M⁻¹ s⁻¹; in experiment [2], 42400 M⁻¹ s⁻¹; in experiment [3], 35600 M⁻¹ s⁻¹; in experiment [4], 24500 M⁻¹ s⁻¹; in experiment [5], 60100 M⁻¹ s⁻¹; in experiment [6] (SPR) it was 11300 M⁻¹ s⁻¹. Further, the ka entry in experiment [4] was “ka = 2.45E+4/M * s”. The kd entry in experiment [4] is reported as “kd = 8.83E−4/s”. The Kd in experiment [6] (SPR, read-out: apparent KD) was found to be 1242.5 ± 0.6 nM.
`CCc1nc2cc3ccccc3cc2cc1C(=O)N1CCC[C@H]1C(=O)N[C@@H](C/C=C/C[C@H](NC(=O)[C@@H]1CCCN1C(=O)c1cc2cc3ccccc3cc2nc1CC)C(=O)N[C@@H](CCCCN)C(=O)NCCCN)C(=O)N[C@@H](CCCCN)C(=O)NCCCN` [Compound 5]: the “Residence time (t1/2) for compound binding to RNA” value in experiment [1] turned out to be 180.47 s; in experiment [2], 498.56 s; in experiment [3], 253.85 s; in experiment [4], 901.17 s; in experiment [5], 702.13 s; in experiment [6], 176.34 s. For the same compound, the “Off-rates (koff)” value is 0.00384 s⁻¹ in experiment [1] (SPR); 0.00139 s⁻¹ in experiment [2]; 0.00273 s⁻¹ in experiment [3]; 0.000769 s⁻¹ in experiment [4]; 0.000987 s⁻¹ in experiment [5]. Moreover, the “On-rates (kon)” value came out at 15000 M⁻¹ s⁻¹ in experiment [1] (SPR); 30100 M⁻¹ s⁻¹ in experiment [2]; 50200 M⁻¹ s⁻¹ in experiment [3]; 20100 M⁻¹ s⁻¹ in experiment [4]; 49700 M⁻¹ s⁻¹ in experiment [5]. Further, the ka result in experiment [4] is reported as “ka = 2.01E+4/M * s”. Further, the kd result in experiment [4] is “kd = 7.69E−4/s”.

Source of the values: US20140050778A1, “NUCLEIC ACID BINDING COMPOUNDS, METHODS OF MAKING, AND USE THEREOF” (UNIVERSITY OF ROCHESTER, priority 2010, published 2014).
